Test system: Actinomadura verrucosospora A80577
Experiment: Resistance of the producing culture to antibiotic sensitivity discs on seeded ISP No. 2 agar plates
Format: cell-based
Conditions: culture A80577 on ISP No. 2 agar
Experimental: Resistance to antibiotics was measured by padding antibiotic sensitivity discs onto the surface of seeded ISP No. 2 agar plates.
A80577 was resistant to: bacitracin 10 units, cephalothin 30 µg, lincomycin 2 µg, oleandomycin 15 µg, penicillin G 10 units, rifampin 5 µg, and tetracycline 30 µg. It was sensitive to: gentamicin 10 µg, neomycin 30 µg, streptomycin 10 µg, tobramycin 10 µg and vancomycin 30 µg.

gentamicin
Resistance to antibiotics (sensitivity disc) (disc 10 µg): sensitive

CO[C@H]1C[C@H](O[C@H]2[C@H](C)[C@@H](O[C@@H]3O[C@H](C)C[C@H](N(C)C)[C@H]3O)[C@@H](C)C[C@@]3(CO3)C(=O)[C@H](C)[C@@H](O)[C@@H](C)[C@@H](C)OC(=O)[C@@H]2C)O[C@@H](C)[C@@H]1O [oleandomycin]
Resistance to antibiotics (sensitivity disc) (disc 15 µg): resistant

CN[C@H](CC(C)C)C(=O)N[C@H]1C(=O)N[C@@H](CC(N)=O)C(=O)N[C@H]2C(=O)N[C@H]3C(=O)N[C@H](C(=O)N[C@H](C(=O)O)c4cc(O)cc(O)c4-c4cc3ccc4O)[C@H](O)c3ccc(c(Cl)c3)Oc3cc2cc(c3O[C@@H]2O[C@H](CO)[C@@H](O)[C@H](O)[C@H]2O[C@H]2C[C@](C)(N)[C@H](O)[C@H](C)O2)Oc2ccc(cc2Cl)[C@H]1O [vancomycin]
Resistance to antibiotics (sensitivity disc) (disc 30 µg): sensitive

neomycin
Resistance to antibiotics (sensitivity disc) (disc 30 µg): sensitive

bacitracin
Resistance to antibiotics (sensitivity disc) (disc 10 units): resistant

NC[C@H]1O[C@H](O[C@H]2[C@H](O)[C@@H](O[C@H]3O[C@H](CO)[C@@H](O)[C@H](N)[C@H]3O)[C@H](N)C[C@@H]2N)[C@H](N)C[C@@H]1O [tobramycin]
Resistance to antibiotics (sensitivity disc) (disc 10 µg): sensitive

CCC[C@@H]1C[C@@H](C(=O)N[C@@H]([C@H]2O[C@H](SC)[C@H](O)[C@@H](O)[C@H]2O)[C@@H](C)O)N(C)C1 [lincomycin]
Resistance to antibiotics (sensitivity disc) (disc 2 µg): resistant

CO[C@H]1/C=C/O[C@@]2(C)Oc3c(C)c(O)c4c(O)c(c(/C=N/N5CCN(C)CC5)c(O)c4c3C2=O)NC(=O)/C(C)=C\C=C\[C@H](C)[C@H](O)[C@@H](C)[C@@H](O)[C@@H](C)[C@H](OC(C)=O)[C@@H]1C [rifampin]
Resistance to antibiotics (sensitivity disc) (disc 5 µg): resistant

CC(=O)OCC1=C(C(=O)O)N2C(=O)[C@@H](NC(=O)Cc3cccs3)[C@H]2SC1 [cephalothin]
Resistance to antibiotics (sensitivity disc) (disc 30 µg): resistant

[H]/N=C(/N)N[C@H]1[C@H](O)[C@@H](O)[C@H](O[C@@H]2O[C@@H](C)[C@](O)(C=O)[C@H]2O[C@@H]2O[C@@H](CO)[C@H](O)[C@@H](O)[C@@H]2NC)[C@@H](N/C(N)=N\[H])[C@@H]1O [streptomycin]
Resistance to antibiotics (sensitivity disc) (disc 10 µg): sensitive

CC1(C)S[C@@H]2[C@H](NC(=O)Cc3ccccc3)C(=O)N2[C@H]1C(=O)O [penicillin G]
Resistance to antibiotics (sensitivity disc) (disc 10 units): resistant

— patent EP0305086A2, “Antibiotic A80577 and process for its production” (ELI LILLY AND COMPANY, priority 1987, dated 1989)
